From patent publication US6875759B1, “Substituted guanidines and the use thereof” (Kadmus Pharmaceuticals, priority 1999, dated 2005)

Tests used:
[1] = tested on: human pancreatic cancer (HS766T) cells; format: in vivo; conditions: daily i.p. for five days
From the text: FIG. 2B is a bar graph which depicts the effect of the compound of Example 8 on human pancreatic cancer in BDF/1 mice using the sub-renal capsule assay.
Human cancer cells can be grown in the sub-renal capsule of immuno-competent mice where, for a limited period of time, they escape detection by the mouse's immune system. Thus, the sub-renal capsule assay provides a convenient system to study the effect of drugs on the growth of tumor cells in vivo (Bogden, A. E., et al., Exp. Cell Biol. 47:281 (1979)). Briefly, female BDF mice weighing 18-20g were anesthetized, the left kidney exteriorized and a small nick was made in the kidney capsule for implantation of tumor cells. Approximately 1×10^6 human prostate (DU14) or pancreatic cancer (HS766T) cells were prepared as a fibrinogen-jelled pellet (Stratton, J. A., et al., Gynecol. Oncol. 19:336 (1984); Stratton, J. A., et al., Gynecol. Oncol. 30:416 (1988)) and implanted beneath the renal capsule. […] One day after the final injection, the animals were killed and the tumor volume was measured. Tumor growth was determined by subtracting the initial size of the implant from the size of the implant size following treatment (Stratton, J. A., et al., Gynecol Oncol. 19:336 (1984); Stratton, J. A., et al., Gynecol. Oncol. 30:416 (1988)).

[2] = Mouse formalin test pain model, late phase; format: in vivo
Protocol: The formalin test was conducted using standard procedures (Hunskaar et al., J. Neurosci. Meth. 14:69-76 (1985). Mice (male CF-1, 20-25 g) were placed in Plexiglass jars for at least 1 hr to accommodate to the environment
The animals received either test drug at 5-50 mg/kg p.o. or the appropriate volume of vehicle (normal saline). Thirty minutes after p.o. dosing mice were injected with formalin (20 μl of 2.5% formaldehyde solution in saline) into the dorsal surface of the right hind paw.
All experiments were done in a blinded manner. The late phase of the formalin response was measured as licking/biting from 10-50 minutes after formalin injection. Differences between groups were analyzed by one-way analysis of variance (ANOVA), A P value ≦0.05 was considered significant. Reduction in the time spent licking/biting in the late phase of the formalin response is considered an indication of a reduction in chronic pain.

[3] = tested on: human breast (HS578-T) cancer cells; assay: Mitochondrial membrane depolarization, JC-1 flow cytometry, breast cancer cells; format: cell-based; conditions: 25 μM, five hours following drug exposure
Protocol: FIGS. 5A-5C illustrate the effects of the compound of Example 8 on human breast cancer cells (HS578-T). Mitochondrial membrane depolarization was assessed by flow cytometry as measured by the fluorescence of cation, JC-1. Cells were exposed to 25 μM of the compound and fluorescence measured at: 0 hours (FIG. 5A), 2 hours (FIG. 5B) and 5 hours (FIG. 5C).
Mitochondrial membrane depolarization is an early event in apoptosis. […] These early changes in mitochondrial function can be detected using a fluorescent cation, JC-1, that emits a red color when sequestered in the mitochondria of healthy cells, or a green color when localized to the cytoplasm.
Human breast (HS578-T) and prostate (DU145) cancer cells were exposed to 25 μM of the compound of Example 8 for varying lengths of times. Both cell lines lost the capacity to sequester JC-1 in the mitochondrial compartment as indicated by a time-dependent increase in green vs. red fluorescence (FIGS. 5A-5F). In an attempt to better quantitate the results of these experiments, the scans were divided into quadrants. At time 0, greater than 90% of the dye was localized in the mitochondria in both breast and prostate cancer cells. By five hours following drug exposure, the mitochondria from the prostate and breast cells contained only 33% and 22% of the dye, respectively.

For `Cc1ccc(N=C(Nc2ccc(C)cc2)N2CCN(C/C=C/c3ccccc3)CC2)cc1` [Example 8, 1-[(N,N′-Di-p-tolyl)amidino]-(trans-1′-cinnamyl)piperizine], the “inhibition of tumor growth” value ([1]; pancreatic cancer cell line in mouse sub-renal capsule) was “greater than 95%”, the “effect on tumor growth (in words)” value ([1]; pancreatic implant, FIG. 2B) was “dose-dependent and highly significant inhibition of tumor growth” and the “late phase pain versus control vehicle (post-hoc Newman-Kuels test)” value ([2]; 30 mg/kg orally) was “different from control vehicle at P<0.05”. For the same molecule, the “late phase pain versus control vehicle (post-hoc Newman-Kuels test)” value ([2]; 50 mg/kg orally) was “different from control vehicle at P<0.05”, the “effect on general behavior of the animals” value ([2]; at the doses effective in the formalin test, p.o.) was “did not affect the general behavior” and the “time spent licking, late phase of formalin response (in words)” value ([2]; oral administration, 5-50 mg/kg, male CF-1 mice) was “dose-dependent reduction in the time spent licking”. For the same molecule, the “JC-1 dye contained in mitochondria” value [3] was 22%.
